In ChEMBL document CHEMBL4715920, “Novel Spiropiperidine Allosteric Modulators of Nicotinic Acetylcholine Receptors for Treating Central Nervous System Disorders” (ACS Med Chem Lett, 2021):

Target: Neuronal acetylcholine receptor subunit alpha-7 (Homo sapiens, UniProt P36544)
Experiment: Positive allosteric modulation of recombinant human AChR alpha7 expressed in HEK cells co-expressing RIC-3 at -60 mV holding potential treated for 58 sec followed by acetylcholine applied for 1 sec measured potentiation effect by automated patch clamp electrophysiological method
Format: cell-based

Chain of Neuronal acetylcholine receptor subunit alpha-7 (P36544 whole entry): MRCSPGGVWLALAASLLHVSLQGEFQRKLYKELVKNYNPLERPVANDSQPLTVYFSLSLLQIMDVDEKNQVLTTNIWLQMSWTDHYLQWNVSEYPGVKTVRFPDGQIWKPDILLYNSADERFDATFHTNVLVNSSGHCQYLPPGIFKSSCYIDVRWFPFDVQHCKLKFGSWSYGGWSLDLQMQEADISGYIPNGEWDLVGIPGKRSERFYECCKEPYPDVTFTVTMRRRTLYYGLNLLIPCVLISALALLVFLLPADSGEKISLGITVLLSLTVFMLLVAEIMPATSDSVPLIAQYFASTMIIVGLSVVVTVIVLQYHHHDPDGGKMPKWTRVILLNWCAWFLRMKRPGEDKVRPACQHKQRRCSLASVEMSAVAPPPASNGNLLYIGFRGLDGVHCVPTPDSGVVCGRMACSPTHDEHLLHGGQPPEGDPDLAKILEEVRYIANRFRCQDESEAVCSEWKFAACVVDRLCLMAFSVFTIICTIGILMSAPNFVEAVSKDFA

EC50, ≤ 100 nM:
NS(=O)(=O)N1CCC2(CC1)C[C@H]2COc1cccc(NCC(F)(F)F)n1, NS(=O)(=O)N1CCC2(CC1)C(COc1ccnc(OC(F)F)c1)C2(F)F (stereo unspecified), COc1ccc(Cl)cc1NC[C@@H]1CC12CCN(S(N)(=O)=O)CC2, COc1ccc(Cl)cc1NC(=O)[C@@H]1C(F)(F)C12CCN(S(N)(=O)=O)CC2, NS(=O)(=O)N1CCC2(CC1)C(COc1noc(-c3ccccc3)n1)C2(F)F (stereo unspecified), COc1ccc(Cl)cc1SC[C@@H]1CC12CCN(S(N)(=O)=O)CC2
